How the values were obtained:
PCSK9 [1] = target: T1, PCSK9 (Homo sapiens, UniProt Q8NBP7); assay: Differential scanning calorimetry (DSC) assay, direct binding / thermal stabilization of PCSK9; conditions: Tm(with compound)−Tm(no compound); 2 μM PCSK9, 300 μM test compound
Experimental: Differential scanning calorimetry (DSC) was used as a biophysical method to confirm direct binding to PCSK9. A solution containing 2 μM PCSK9 with or without 300 μM test compound in 25 mM HEPES (pH 7.5)/150 mM NaCl/1 mM CaCl2/3.75% DMSO was transferred to the sample cell of the DSC instrument, while buffer alone was placed in the reference cell. Both cells were heated at a constant rate (200° C./hr) from 20-80° C. while recording the excess heat capacity of the sample cell relative to the reference cell. Each thermogram was analyzed to provide the melting temperature (Tm) of the protein.
The higher the temperature shift generally, the higher the affinity.

PCSK9 [2] = target: T1, PCSK9; assay: Fluorescence polarization competition binding assay (probe: compound of Example 57); conditions: 2 μM PCSK9, 50 nM compound of Example 57 as probe, overnight incubation; read-out: FP IC
Experimental: Relative compound affinities were determined using a competition binding assay with a fluorescence polarization format. Solution (49 μL) containing 2 μM PCSK9 and 50 nM compound of Example 57 in 20 mM HEPES (pH 7.5)/150 mM NaCl/1 mM CaCl2/0.005% P-20 was dispensed to wells of a 384-well black non-binding microplate before the addition of 1 μL of test compound or DMSO. After mixing, the plate was centrifuged and sealed for overnight incubation in the dark. The anisotropy signal was read using a fluorescence polarization protocol on a Perkin-Elmer Envision plate reader. The % inhibition was determined relative to the window defined by the DMSO control wells and wells containing 50 nM probe in the absence of PCSK9.

T1 sequence (Q8NBP7 153-692): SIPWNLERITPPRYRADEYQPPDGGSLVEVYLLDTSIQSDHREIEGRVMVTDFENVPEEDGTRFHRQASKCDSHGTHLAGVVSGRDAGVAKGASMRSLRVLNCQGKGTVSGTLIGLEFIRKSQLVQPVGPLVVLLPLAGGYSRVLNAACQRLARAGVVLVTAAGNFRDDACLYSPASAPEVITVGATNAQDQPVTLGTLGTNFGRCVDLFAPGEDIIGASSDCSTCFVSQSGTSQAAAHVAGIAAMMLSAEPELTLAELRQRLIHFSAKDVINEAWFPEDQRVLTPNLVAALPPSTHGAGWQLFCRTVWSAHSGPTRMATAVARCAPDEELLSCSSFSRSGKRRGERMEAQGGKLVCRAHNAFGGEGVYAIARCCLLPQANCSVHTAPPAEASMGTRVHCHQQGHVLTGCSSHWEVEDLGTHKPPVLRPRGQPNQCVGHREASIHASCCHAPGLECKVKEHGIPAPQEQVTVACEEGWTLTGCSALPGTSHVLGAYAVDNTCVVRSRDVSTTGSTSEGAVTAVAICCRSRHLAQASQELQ

Row | SMILES | ΔTm at 300 µM (PCSK9 [1]) [°C] | IC50 (PCSK9 [2]) [nM]
1 | COc1ccc(Oc2cc3c(cc2OC)CCN[C@]3(C)CC(=O)Nc2nccs2)cc1F [Example 10, (R)-2-(7-(3-fluoro-4-methoxyphenoxy)-6-methoxy-1-methyl-1,2,3,4-tetrahydroisoquinolin-1-yl)-N-(thiazol-2-yl)acetamide] | 5.55 | 902
2 | COc1cccc(NC(=O)C[C@@]2(C)NCCc3cc(OC)c(Oc4cccc(F)c4)cc32)c1 [Example 11, (R)-2-(7-(3-fluorophenoxy)-6-methoxy-1-methyl-1,2,3,4-tetrahydroisoquinolin-1-yl)-N-(3-methoxyphenyl)acetamide] | 5.69 | 756
3 | COc1cc2c(cc1Oc1cccc(F)c1)[C@@](C)(CC(=O)Nc1cccc3[nH]ccc13)NCC2 [Example 12, (R)-2-(7-(3-fluorophenoxy)-6-methoxy-1-methyl-1,2,3,4-tetrahydroisoquinolin-1-yl)-N-(1H-indol-4-yl)acetamide] | -0.225 | 753
4 | C[C@]1(CC(=O)Nc2nccs2)NCCc2cc(OCC3CCCO3)c(Oc3ccc(-c4ccc(C(=O)O)cc4)c(F)c3)cc21 (some centres unmarked) [Example 13] | 8.4 | 99.3
5 | COc1cc2c(cc1Oc1ccc(-c3c[nH]c(C(=O)O)c3)c(F)c1)[C@@](C)(CC(=O)Nc1nccs1)NCC2 [Example 14, (R)-4-(2-fluoro-4-((6-methoxy-1-methyl-1-(2-oxo-2-(thiazol-2-ylamino)ethyl)-1,2,3,4-tetrahydroisoquinolin-7-yl)oxy)phenyl)-1H-pyrrole-2-carboxylic acid] | 5.89 | 0.237
6 | COC(=O)C1(c2ccc(-c3ccc(Oc4cc5c(cc4OC)CCN[C@]5(C)CC(=O)Nc4nccs4)cn3)cc2)CC1 [Example 15, methyl (R)-1-(4-(5-((6-methoxy-1-methyl-1-(2-oxo-2-(thiazol-2-ylamino)ethyl)-1,2,3,4-tetrahydroisoquinolin-7-yl)oxy)pyridin-2-yl)phenyl)cyclopropane-1-carboxylate] | 3.31 | 3.76
7 | COC(=O)CCc1ccc(-c2ccc(Oc3cc4c(cc3OC)CCN[C@]4(C)CC(=O)Nc3nccs3)cn2)cc1 [Example 16, methyl (R)-3-(4-(5-((6-methoxy-1-methyl-1-(2-oxo-2-(thiazol-2-ylamino)ethyl)-1,2,3,4-tetrahydroisoquinolin-7-yl)oxy)pyridin-2-yl)phenyl)propanoate] | 3.57 | 4.15
8 | COC(=O)c1cc(-c2ccc(Oc3cc4c(cc3OC)CCN[C@]4(C)CC(=O)Nc3nccs3)cn2)c[nH]1 [Example 17, methyl (R)-4-(5-((6-methoxy-1-methyl-1-(2-oxo-2-(thiazol-2-ylamino)ethyl)-1,2,3,4-tetrahydroisoquinolin-7-yl)oxy)pyridin-2-yl)-1H-pyrrole-2-carboxylate] | 2.62 | 11.5
9 | C[C@]1(CC(=O)Nc2nccs2)NCCc2cc(OCc3ccccn3)c(Oc3ccc(-c4ccc(C(=O)O)cc4)c(F)c3)cc21 [Example 18, (R)-2′-fluoro-4′-((1-methyl-1-(2-oxo-2-(thiazol-2-ylamino)ethyl)-6-(pyridin-2-ylmethoxy)-1,2,3,4-tetrahydroisoquinolin-7-yl)oxy)-[1,1′-biphenyl]-4-carboxylic acid] | 7.62 | 94.3
10 | C[C@]1(CC(=O)Nc2nccs2)NCCc2cc(OCc3ncccn3)c(Oc3ccc(-c4ccc(C(=O)O)cc4)c(F)c3)cc21 [Example 19, (R)-2′-fluoro-4′-((1-methyl-1-(2-oxo-2-(thiazol-2-ylamino)ethyl)-6-(pyrimidin-2-ylmethoxy)-1,2,3,4-tetrahydroisoquinolin-7-yl)oxy)-[1,1′-biphenyl]-4-carboxylic acid] | 9.05 | 162
11 | C[C@]1(CC(=O)Nc2nccs2)NCCc2cc(OCC3CCCO3)c(Oc3ccc(-c4c[nH]c5c(C(=O)O)cccc45)c(F)c3)cc21 (stereo partly drawn) [Example 20, 3-(2-fluoro-4-(((1R)-1-methyl-1-(2-oxo-2-(thiazol-2-ylamino)ethyl)-6-((tetrahydrofuran-2-yl)methoxy)-1,2,3,4-tetrahydroisoquinolin-7-yl)oxy)phenyl)-1H-indole-7-carboxylic acid] | 8.56 | 188
12 | COc1cc2c(cc1Oc1ccc(-c3c[nH]c4c(C(=O)O)cccc34)c(F)c1)[C@@](C)(CC(=O)Nc1nccs1)NCC2 [Example 21, (R)-3-(2-fluoro-4-((6-methoxy-1-methyl-1-(2-oxo-2-(thiazol-2-ylamino)ethyl)-1,2,3,4-tetrahydroisoquinolin-7-yl)oxy)phenyl)-1H-indole-7-carboxylic acid] | 6.58 | 200
13 | COc1cc2c(cc1Oc1ccc(-c3ccc(C(=O)O)cc3)c(F)c1)[C@@](C)(CC(=O)Nc1nccs1)NCC2 [Example 22, (R)-2′-fluoro-4′-((6-methoxy-1-methyl-1-(2-oxo-2-(thiazol-2-ylamino)ethyl)-1,2,3,4-tetrahydroisoquinolin-7-yl)oxy)-[1,1′-biphenyl]-4-carboxylic acid] | 7.52 | 211
14 | C[C@]1(CC(=O)Nc2nccs2)NCCc2cc(OCC3CCCCO3)c(Oc3ccc(-c4ccc(C(=O)O)cc4)c(F)c3)cc21 (stereo partly drawn) [Example 23, 2′-fluoro-4′-(((1R)-1-methyl-1-(2-oxo-2-(thiazol-2-ylamino)ethyl)-6-((tetrahydro-2H-pyran-2-yl)methoxy)-1,2,3,4-tetrahydroisoquinolin-7-yl)oxy)-[1,1′-biphenyl]-4-carboxylic acid] | 8.71 | 228
15 | Cc1noc(COc2cc3c(cc2Oc2ccc(-c4ccc(C(=O)O)cc4)c(F)c2)[C@@](C)(CC(=O)Nc2nccs2)NCC3)n1 [Example 24, (R)-2′-fluoro-4′-((1-methyl-6-((3-methyl-1,2,4-oxadiazol-5-yl)methoxy)-1-(2-oxo-2-(thiazol-2-ylamino)ethyl)-1,2,3,4-tetrahydroisoquinolin-7-yl)oxy)-[1,1′-biphenyl]-4-carboxylic acid] | 7.2 | 261
16 | COc1cc2c(cc1Oc1ccc(-c3ccc(C(=O)O)cc3F)c(F)c1)[C@@](C)(CC(=O)Nc1nccs1)NCC2 [Example 25, (R)-2,2′-difluoro-4′-((6-methoxy-1-methyl-1-(2-oxo-2-(thiazol-2-ylamino)ethyl)-1,2,3,4-tetrahydroisoquinolin-7-yl)oxy)-[1,1′-biphenyl]-4-carboxylic acid] | 6.6 | 302
17 | COc1cc2c(cc1Oc1ccc(-c3ccc(C(=O)O)cc3)cc1)[C@@](C)(CC(=O)Nc1nccs1)NCC2 [Example 26, (R)-4′-((6-methoxy-1-methyl-1-(2-oxo-2-(thiazol-2-ylamino)ethyl)-1,2,3,4-tetrahydroisoquinolin-7-yl)oxy)-[1,1′-biphenyl]-4-carboxylic acid] | 5.75 | 386
18 | COc1cc2c(cc1Oc1ccc(-c3ccc(C(=O)O)c(F)c3)c(F)c1)[C@@](C)(CC(=O)Nc1nccs1)NCC2 [Example 27, (R)-2′,3-difluoro-4′-((6-methoxy-1-methyl-1-(2-oxo-2-(thiazol-2-ylamino)ethyl)-1,2,3,4-tetrahydroisoquinolin-7-yl)oxy)-[1,1′-biphenyl]-4-carboxylic acid] | 7.11 | 386
19 | COc1cc2c(cc1Oc1ccc(-c3ccc(/C=C/C(=O)O)cc3)c(F)c1)[C@@](C)(CC(=O)Nc1nccs1)NCC2 [Example 28, (RE)-3-(2′-fluoro-4′-((6-methoxy-1-methyl-1-(2-oxo-2-(thiazol-2-ylamino)ethyl)-1,2,3,4-tetrahydroisoquinolin-7-yl)oxy)-[1,1′-biphenyl]-4-yl)acrylic acid] | 6.91 | 407
20 | COc1cc2c(cc1Oc1ccc(-c3ccc(C(=O)O)cc3F)cc1)[C@@](C)(CC(=O)Nc1nccs1)NCC2 [Example 29, (R)-2-fluoro-4′-((6-methoxy-1-methyl-1-(2-oxo-2-(thiazol-2-ylamino)ethyl)-1,2,3,4-tetrahydroisoquinolin-7-yl)oxy)-[1,1′-biphenyl]-4-carboxylic acid] | 5.37 | 416
21 | COc1cc2c(cc1Oc1ccc(-c3ccc(CCC(=O)O)cc3)cc1)[C@@](C)(CC(=O)Nc1nccs1)NCC2 [Example 30, (R)-3-(4′-((6-methoxy-1-methyl-1-(2-oxo-2-(thiazol-2-ylamino)ethyl)-1,2,3,4-tetrahydroisoquinolin-7-yl)oxy)-[1,1′-biphenyl]-4-yl)propanoic acid] | 5.48 | 450
22 | COc1cc2c(cc1Oc1ccc(-c3ccc(CC(=O)O)cc3)c(F)c1)[C@@](C)(CC(=O)Nc1nccs1)NCC2 [Example 31, (R)-2-(2′-fluoro-4′-((6-methoxy-1-methyl-1-(2-oxo-2-(thiazol-2-ylamino)ethyl)-1,2,3,4-tetrahydroisoquinolin-7-yl)oxy)-[1,1′-biphenyl]-4-yl)acetic acid] | 5.84 | 522
